Results on 29 molecules are retold here after PMC3981819, “Signaling Properties and Pharmacological Analysis of Two Sulfakinin Receptors from the Red Flour Beetle, Tribolium castaneum” (PLoS ONE, 2014).

In general, EC50 refers to the concentration needed to bring the measured effect to its halfway point.

The test system of experiment [1] is Trica-SKR1. In words: Aequorin-luminescence assay, CHO-WTA11 cells (Gα16) transfected with Trica-SKR1. The experiment is classed as cell-based, Tribolium castaneum. The note with it: for % Trica-SKR1 (relative activation): peptide at 1 μM, relative to sTrica-SK(5–13) at 1 μM = 100%, at least three biological repeats, each in duplicate. On the procedure:
(§1) General pharmacological studies were performed in Chinese Hamster Ovary (CHO) WTA11 cells, stably coexpressing apoaequorin, a zeocin resistance gene and the promiscuous Gα16, which couples most agonist-induced GPCRs to the phospholipase C and Ca^2+ pathway irrespective of their natural signaling cascade. CHO-PAM28 cells stably expressing apoaequorin and a puromycin resistance gene but not Gα16 and HEK293T cells (Invitrogen) were used to determine possible effects on Ca^2+ and/or cAMP second messenger systems, respectively. All cell lines were cultured in Dulbecco’s Modified Eagles Medium nutrient mixture F12-Ham (DMEM/F12; Invitrogen) supplemented with 1% penicillin/streptomycin (10000 units/ml penicillin and 10 mg/ml streptomycin in 0.9% NaCl; Invitrogen) to prevent bacterial contamination of gram-positive and gram-negative bacteria. In CHO-WTA11 culture medium 250 μg/ml zeocin (Invitrogen) was added as a selection marker, while CHO-PAM28 culture medium was supplemented with 5 μg/ml puromycin to select cells stably expressing apoaequorin. All cell culture media were supplemented with 10% fetal bovine serum (inactivated at […]; Sigma-Aldrich).
(§2) Cells were cultured in vitro as a monolayer at 37°C with a constant supply of 5% CO2 and were subcultivated twice a week. Transfections of cells were performed in T75 flasks at 60–80% confluency. Transfection reagent for CHO cells was prepared by combining 3.75 ml Opti-MEM I (Invitrogen), 7.5 μg plasmid DNA and 18.75 μl of Plus Reagent (Invitrogen). After gently mixing and 5 min incubation at room temperature 45 μl of Lipofectamine LTX was added to the mixture. This transfection medium was incubated for 30 min at room temperature and added dropwise to the cells, supplemented with 3 ml of fresh culture medium. HEK 293T cells were cotransfected with a receptor construct (6 μg) and CRE-luciferase reporter construct (3 μg), consisting of the open reading frame of the luciferase gene, downstream of a multimerized cAMP-response-element (CRE) and promoter. After transfection, cells were grown overnight before an additional 20 ml of culture medium was supplemented. Cells were again incubated overnight for a final growth phase before luminescence screens were performed.
(§3) The aequorin luminescence assay was used to measure Ca^2+ signaling in CHO cell lines. Cells were detached using phosphate buffered saline (PBS) containing 0.2% EDTA and collected in 10 ml of DMEM/F-12 (without phenol red, with L-glutamine and 10 mM HEPES; Gibco). The viable cells were quantified using a NucleoCounter NC-100 (Chemometic). Cells were pelleted by 4 min centrifugation at 800 rpm at room temperature and resuspended in DMEM/BSA (DMEM/F-12 without phenol red, with L-glutamine and 10 mM HEPES, 0.1% bovine serum albumin) at a concentration of 5×10^6 cells/ml. Cells were then shielded from light and Coelenterazine H (Invitrogen) was added at a final concentration of 5 μM. Cells were gently shaken at room temperature for 4 h under dark conditions, allowing the aequorin holoenzyme to be reconstituted. After a 10-fold dilution in DMEM/BSA, cells were incubated another 30 min under the same conditions. Pharmacological ligands were dissolved in DMEM/BSA and 50 μl of ligand was added to wells of a 96-well plate. Wells containing 50 μl of DMEM/BSA were used as a negative control, while wells containing 1 μM of ATP served as positive control. Incubated cells were added to the wells of the 96-well plate and light emission was measured for 30 s using a Mithras LB940 (Berthold Technologies). After 30 s Triton X-100 (0.2% in DMEM/BSA) was added, lysing the cells and thus serving as an internal reference. Light emission was measured for an additional 8 s after Triton X-100 was introduced in the wells. Light emission from each well was calculated relative to the total response (ligand+Triton X-100) using the output file of Mikrowin2000 software (Mikrotek). Further analysis was done in Graphpad Prism 5.

Experiment [2] concerns Trica-SKR2. The experiment is described as follows: Aequorin-luminescence assay, CHO-WTA11 cells (Gα16) transfected with Trica-SKR2. Format: cell-based, Tribolium castaneum. The note with it: for % Trica-SKR2 (relative activation): peptide at 1 μM, relative to sTrica-SK(5–13) at 1 μM = 100%, at least three biological repeats, each in duplicate. On the procedure:
as §1, §2, §3

For experiment [3], the target named is Tribolium castaneum sulfakinin receptor 1 (T. castaneum).
Experiment [4] addresses Tribolium castaneum sulfakinin receptor 2 (T. castaneum).

Square brackets hold non-standard residues; d marks the D form. Ends that are not written are not given here. pGlu = O=C1CC[C@@H](C(=O)O)N1

For the molecule FDDYGHMRa [2076[φ1]wp-2], the “% Trica-SKR1 (relative activation)” value in experiment [1] (aequorin bioluminescence) came to 25.8%. The “% Trica-SKR2 (relative activation)” value in experiment [2] (aequorin bioluminescence) was determined as 19.7%.
For the molecule “YGHMRFa [2011[φ1]wp-1, truncated nonsulfated SK analog]”, the “% Trica-SKR1 (relative activation)” value in experiment [1] (aequorin bioluminescence) is 26.3%. The “% Trica-SKR2 (relative activation)” value in experiment [2] (aequorin bioluminescence) came to 21.2%.
The like results for “PVDY(SO3H)DRPIMAFa [1569[φ2]wp-4, sulfated neuropeptide derived from C. elegans nlp-13]” were, in that order, 6.2% and 13.4%.
On the same counts, the results for “SPVDY(SO3H)DRPIMAFa [1567[φ1]wp-5, sulfated neuropeptide derived from C. elegans nlp-13]” are 23.6% and 33.7%.
On to FDDYGHMRFa [nsTrica-SK(5–13)], for which, in experiment [1] (aequorin bioluminescence), the “% Trica-SKR1 (relative activation)” value turned out to be 29.9%. Further, the “% Trica-SKR2 (relative activation)” value in experiment [2] (aequorin bioluminescence) is 23.5%.
On to “pQLASDDY(SO3H)GHMRFa [sLocmi-SK, sulfated SK from the migratory locust, Locusta migratoria]”, for which the EC50 in experiment [1] (aequorin bioluminescence, 1 fM to 1 μM, ± 95% confidence interval, three independent measurements in duplicate) stood at 16.8 ± 4.6 nM; in experiment [2] (aequorin bioluminescence, 1 fM to 1 μM, three independent measurements in duplicate) it was 776 ± 443 nM. Moreover, the “% Trica-SKR1 (relative activation)” value in experiment [1] (aequorin bioluminescence) came out at 75.0%. In addition, the “times less potent than sTrica-SK(5–13) in activating the Trica-SKR1” value in experiment [1] (ratio of EC50 values) is reported as “about 150 times”. Also, the “% Trica-SKR2 (relative activation)” value in experiment [2] (aequorin bioluminescence) is 79.9%. Further, the “times less potent than sTrica-SK(5–13) as Trica-SKR2 agonist” value in experiment [2] (ratio of EC50 values) was “ca. 1500 times”.
As for “DY(SO3H)RPLQFa [1678A[φ1]wp-4, sulfated SK-like peptide encoded by C. elegans nlp-12]”, the “% Trica-SKR1 (relative activation)” value in experiment [1] (aequorin bioluminescence) is 40.8%. For the same molecule, the “% Trica-SKR2 (relative activation)” value in experiment [2] (aequorin bioluminescence) worked out at 32.6%.
On the same counts, the results for “DGY(SO3H)RPLQFa [1678B[φ1]wp-6, sulfated SK-like peptide encoded by C. elegans nlp-12]” are 28.5% and 19.9%.
On the same counts, the results for “DYGHMRFa [2010[φ1]wp-1, truncated nonsulfated SK analog]” are 7.6% and 8.6%.
Turning to “GHMRFa [2053[φ1]wp-4, truncated nonsulfated SK analog]”, the “% Trica-SKR1 (relative activation)” value in experiment [1] (aequorin bioluminescence) amounted to 13.3%. The “% Trica-SKR2 (relative activation)” value in experiment [2] (aequorin bioluminescence) is 44.6%.
For “FDDYAHMRFa [2007[φ1]wp-1, alanine scan analog of nsTrica-SK, glycine replaced]”, the “% Trica-SKR1 (relative activation)” value in experiment [1] (aequorin bioluminescence) is 30.6%. Moreover, the “% Trica-SKR2 (relative activation)” value in experiment [2] (aequorin bioluminescence) is 25.6%.
On to “FDDYGAMRFa [2006[φ1]wp-1, alanine scan analog of nsTrica-SK]”, for which the “% Trica-SKR1 (relative activation)” value in experiment [1] (aequorin bioluminescence) is recorded as 2.3%. The “% Trica-SKR2 (relative activation)” value in experiment [2] (aequorin bioluminescence) stood at 3.5%.
On the same counts, the results for “FDDYGHMRAa [2003[φ1]wp-2, alanine scan analog of nsTrica-SK]” are 8.2% and 15.6%.
As to “HMRFa [2052[φ1]wp-3, tetrapeptide HMRFamide, truncated analog]”, the “% Trica-SKR1 (relative activation)” value in experiment [1] (aequorin bioluminescence) worked out at 43.4%. In addition, the “% Trica-SKR2 (relative activation)” value in experiment [2] (aequorin bioluminescence) is given as 33.4%.
As to “FDDYGHARFa [2005[φ1]wp-3, alanine scan analog of nsTrica-SK]”, in experiment [1] (aequorin bioluminescence), the “% Trica-SKR1 (relative activation)” value was 5.1%. In experiment [2] (aequorin bioluminescence), the “% Trica-SKR2 (relative activation)” value came out at 11.1%.
On the same counts, the results for “pQPSY(SO3H)DRDIMSFa [1679[φ1]wp-4, sulfated neuropeptide derived from C. elegans nlp-13]” are 16.5% and 16.6%.
The like results for “SPVDYDRPIMAFa [1432-2[φ]wp-6, peptide derived from C. elegans nlp-13]” were, in that order, 16.4% and 11.2%.
The like results for “DDYGHMRFa [2009[φ1]wp-1, truncated nonsulfated SK analog]” were, in that order, 27.2% and 17.1%.
For the molecule “SDDY(SO3H)GHMRFa [1835[φ2]wp-4, sulfated SK analog SDDY(SO3H)GHMRFa]”, the “% Trica-SKR1 (relative activation)” value in experiment [1] (aequorin bioluminescence) amounted to 58.2%. Moreover, the “% Trica-SKR2 (relative activation)” value in experiment [2] (aequorin bioluminescence) was 41.4%.
On the same counts, the results for “pQLASDDYGHMRFa [nsLocmi-SK, nonsulfated Locusta migratoria SK]” are 22.2% and 18.2%.
On the same counts, the results for “FDDAGHMRFa [2008[φ1]wp-2, alanine scan analog of nsTrica-SK, tyrosine replaced]” are 10.1% and 12.1%.
The like results for “FDDYGHMAFa [2004[φ1]wp-1, alanine scan analog of nsTrica-SK]” were, in that order, 5.9% and 7.3%.
As to FDDYGHMRA-NH2 [2003[φ1]wp-2], the aequorin bioluminescence in CHO-WTA11 cells transfected with the receptor, peptide at 1 μM, % of the response to 1 μM sTrica-SK(5–13) in experiment [3] is 8.2%; in experiment [4], 15.6%.
Regarding FDDYGHARF-NH2 [2005[φ1]wp-3], the results for the aequorin bioluminescence in CHO-WTA11 cells transfected with the receptor, peptide at 1 μM, % of the response to 1 μM sTrica-SK(5–13) in experiment [3] and in experiment [4] were 5.1% and 11.1%, respectively.
Regarding FDDYGHMAF-NH2 [2004[φ1]wp-1], the aequorin bioluminescence in CHO-WTA11 cells transfected with the receptor, peptide at 1 μM, % of the response to 1 μM sTrica-SK(5–13) worked out at 5.9% in experiment [3] and 7.3% in experiment [4].
With FDDYGAMRF-NH2 [2006[φ1]wp-1], the values for the aequorin bioluminescence in CHO-WTA11 cells transfected with the receptor, peptide at 1 μM, % of the response to 1 μM sTrica-SK(5–13) in experiment [3] and in experiment [4] were 2.3% and 3.5%, respectively.
The like results for FDDYGHMRF-NH2 [nonsulfated Trica-SK(5–13)] were, in that order, 29.9% and 23.5%.

B1: nsLocmi-SK (peptide)
peptide: [pGlu]LASDDYGHMRF-NH2
SMILES: CSCC[C@H](NC(=O)[C@H](Cc1c[nH]cn1)NC(=O)CNC(=O)[C@H](Cc1ccc(O)cc1)NC(=O)[C@H](CC(=O)O)NC(=O)[C@H](CC(=O)O)NC(=O)[C@H](CO)NC(=O)[C@H](C)NC(=O)[C@H](CC(C)C)NC(=O)[C@@H]1CCC(=O)N1)C(=O)N[C@@H](CCCNC(=N)N)C(=O)N[C@@H](Cc1ccccc1)C(N)=O
For B1, the aequorin bioluminescence in CHO-WTA11 cells transfected with the receptor, peptide at 1 μM, % of the response to 1 μM sTrica-SK(5–13) is 22.2% in experiment [3] and 18.2% in experiment [4].
On the same counts, the results for FDDYAHMRF-NH2 (ends and bridges not checked) [2007[φ1]wp-1] are 30.6% and 25.6%.
